Article PMC4730229, “Benzobisthiazoles Represent a Novel Scaffold for Kinase Inhibitors of CLK Family Members” (Biochemistry, 2015)

Tests used:
Assay in all cases: Kinase profiling (radioactive filter binding)
Type in all cases: biochemical
Conditions in all cases: 1 uM compound
ABL = ABL (Homo sapiens, UniProt P00519)
Procedure: (§1) 3A5 and 5E4 were sent to the International Centre for Kinase Profiling at the MRC Protein Phosphorylation and Ubiquitylation Unit for profiling (as described in ref ([17])). Compounds were profiled against 140 kinases using a radioactive ([^33P]ATP) filter binding assay at a concentration of 1 μM. Results were obtained as inhibition of kinase activity and are listed in Supplementary Table 2.

ASK1 = ASK1 (Homo sapiens, UniProt Q99683)
Procedure: as §1

BRK = BRK (Homo sapiens, UniProt Q13882)
Procedure: as §1

BRSK1 = BRSK1 (Homo sapiens, UniProt Q8TDC3)
Procedure: as §1

CAMKKb = CAMKKb (Homo sapiens, UniProt Q96RR4)
Procedure: as §1

CK2 = CK2 (Homo sapiens, UniProt P68400)
Procedure: as §1

EPH-A4 = EPH-A4 (Homo sapiens, UniProt P54764)
Procedure: as §1

EPH-B2 = EPH-B2 (Homo sapiens, UniProt P29323)
Procedure: as §1

EPH-B3 = EPH-B3 (Homo sapiens, UniProt P54753)
Procedure: as §1

ERK2 = ERK2 (Homo sapiens, UniProt P28482)
Procedure: as §1

ERK5 = ERK5 (Homo sapiens, UniProt Q13164)
Procedure: as §1

FGF-R1 = FGF-R1 (Homo sapiens, UniProt P11362)
Procedure: as §1

GSK3b = GSK3b (Homo sapiens, UniProt P49841)
Procedure: as §1

IKKb = IKKb (Homo sapiens, UniProt O14920)
Procedure: as §1

LKB1 = LKB1 (Homo sapiens, UniProt Q15831)
Procedure: as §1

MAPKAP-K3 = MAPKAP-K3 (Homo sapiens, UniProt Q16644)
Procedure: as §1

MARK1 = MARK1 (Homo sapiens, UniProt Q9P0L2)
Procedure: as §1

MARK3 = MARK3 (Homo sapiens, UniProt P27448)
Procedure: as §1

MELK = MELK (Homo sapiens, UniProt Q14680)
Procedure: as §1

MKK1 = MKK1 (Homo sapiens, UniProt Q02750)
Procedure: as §1

MKK6 = MKK6 (Homo sapiens, UniProt P52564)
Procedure: as §1

MNK1 = MNK1 (Homo sapiens, UniProt Q9BUB5)
Procedure: as §1

MNK2 = MNK2 (Homo sapiens, UniProt Q9HBH9)
Procedure: as §1

MST3 = MST3 (Homo sapiens, UniProt Q9Y6E0)
Procedure: as §1

PAK6 = PAK6 (Homo sapiens, UniProt Q9NQU5)
Procedure: as §1

PKA = PKA (Homo sapiens, UniProt P17612)
Procedure: as §1

PKBb = PKBb (Homo sapiens, UniProt P31751)
Procedure: as §1

PKCz = PKCz (Homo sapiens, UniProt Q05513)
Procedure: as §1

PLK1 = PLK1 (Homo sapiens, UniProt P53350)
Procedure: as §1

PRAK = PRAK (Homo sapiens, UniProt Q8IW41)
Procedure: as §1

RSK1 = RSK1 (Homo sapiens, UniProt Q15418)
Procedure: as §1

SIK3 = SIK3 (Homo sapiens, UniProt Q9Y2K2)
Procedure: as §1

STK33 = STK33 (Homo sapiens, UniProt Q9BYT3)
Procedure: as §1

SYK = SYK (Homo sapiens, UniProt P43405)
Procedure: as §1

SmMLCK = SmMLCK (Homo sapiens, UniProt Q15746)
Procedure: as §1

Src = Src (Homo sapiens, UniProt P12931)
Procedure: as §1

TLK1 = TLK1 (Homo sapiens, UniProt Q9UKI8)
Procedure: as §1

TTBK2 = TTBK2 (Homo sapiens, UniProt Q6IQ55)
Procedure: as §1

TrkA = TrkA (Homo sapiens, UniProt P04629)
Procedure: as §1

ULK2 = ULK2 (Homo sapiens, UniProt Q8IYT8)
Procedure: as §1

VEG-FR = VEG-FR (Homo sapiens, UniProt P17948)
Procedure: as §1

YES1 = YES1 (Homo sapiens, UniProt P07947)
Procedure: as §1

p38g MAPK = p38g MAPK (Homo sapiens, UniProt P53778)
Procedure: as §1

Chain of GSK3b (P49841 whole entry): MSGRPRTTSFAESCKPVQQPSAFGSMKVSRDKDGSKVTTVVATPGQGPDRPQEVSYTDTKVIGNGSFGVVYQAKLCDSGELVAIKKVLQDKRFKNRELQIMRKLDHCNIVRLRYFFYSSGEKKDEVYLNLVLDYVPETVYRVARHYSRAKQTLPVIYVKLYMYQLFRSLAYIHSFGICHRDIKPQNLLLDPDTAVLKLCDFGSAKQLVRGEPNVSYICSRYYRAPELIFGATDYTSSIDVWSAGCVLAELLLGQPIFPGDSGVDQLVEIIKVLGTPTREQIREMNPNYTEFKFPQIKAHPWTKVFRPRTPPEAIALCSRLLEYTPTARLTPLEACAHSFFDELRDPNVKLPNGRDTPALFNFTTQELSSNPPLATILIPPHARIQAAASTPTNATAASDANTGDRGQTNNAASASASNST
Chain of SmMLCK (Q15746 923-1914): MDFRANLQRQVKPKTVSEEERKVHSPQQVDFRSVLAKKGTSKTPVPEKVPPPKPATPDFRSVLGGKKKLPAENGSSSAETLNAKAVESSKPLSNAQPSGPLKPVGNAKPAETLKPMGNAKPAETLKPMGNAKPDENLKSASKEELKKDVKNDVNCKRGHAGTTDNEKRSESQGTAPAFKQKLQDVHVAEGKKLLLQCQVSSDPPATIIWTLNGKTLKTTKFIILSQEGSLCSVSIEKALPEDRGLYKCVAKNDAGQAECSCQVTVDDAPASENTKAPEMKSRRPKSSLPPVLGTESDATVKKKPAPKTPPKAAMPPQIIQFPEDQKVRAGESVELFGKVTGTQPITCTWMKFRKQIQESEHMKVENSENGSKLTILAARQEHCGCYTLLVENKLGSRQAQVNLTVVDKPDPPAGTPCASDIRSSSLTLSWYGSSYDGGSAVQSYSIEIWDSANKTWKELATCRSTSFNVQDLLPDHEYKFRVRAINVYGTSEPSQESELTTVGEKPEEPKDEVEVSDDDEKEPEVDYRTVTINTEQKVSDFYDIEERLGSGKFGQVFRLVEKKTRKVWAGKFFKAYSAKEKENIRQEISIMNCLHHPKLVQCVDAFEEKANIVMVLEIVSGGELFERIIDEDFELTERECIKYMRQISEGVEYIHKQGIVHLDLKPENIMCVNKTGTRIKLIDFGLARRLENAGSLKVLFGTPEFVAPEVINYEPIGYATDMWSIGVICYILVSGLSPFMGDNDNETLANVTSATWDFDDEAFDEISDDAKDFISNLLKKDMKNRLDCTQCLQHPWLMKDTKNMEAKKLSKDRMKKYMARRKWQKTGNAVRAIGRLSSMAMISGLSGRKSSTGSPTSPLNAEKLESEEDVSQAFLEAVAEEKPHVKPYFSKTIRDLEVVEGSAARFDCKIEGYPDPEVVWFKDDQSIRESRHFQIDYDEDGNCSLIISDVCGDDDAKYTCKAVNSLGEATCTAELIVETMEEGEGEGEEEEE
Chain of ABL (P00519 whole entry): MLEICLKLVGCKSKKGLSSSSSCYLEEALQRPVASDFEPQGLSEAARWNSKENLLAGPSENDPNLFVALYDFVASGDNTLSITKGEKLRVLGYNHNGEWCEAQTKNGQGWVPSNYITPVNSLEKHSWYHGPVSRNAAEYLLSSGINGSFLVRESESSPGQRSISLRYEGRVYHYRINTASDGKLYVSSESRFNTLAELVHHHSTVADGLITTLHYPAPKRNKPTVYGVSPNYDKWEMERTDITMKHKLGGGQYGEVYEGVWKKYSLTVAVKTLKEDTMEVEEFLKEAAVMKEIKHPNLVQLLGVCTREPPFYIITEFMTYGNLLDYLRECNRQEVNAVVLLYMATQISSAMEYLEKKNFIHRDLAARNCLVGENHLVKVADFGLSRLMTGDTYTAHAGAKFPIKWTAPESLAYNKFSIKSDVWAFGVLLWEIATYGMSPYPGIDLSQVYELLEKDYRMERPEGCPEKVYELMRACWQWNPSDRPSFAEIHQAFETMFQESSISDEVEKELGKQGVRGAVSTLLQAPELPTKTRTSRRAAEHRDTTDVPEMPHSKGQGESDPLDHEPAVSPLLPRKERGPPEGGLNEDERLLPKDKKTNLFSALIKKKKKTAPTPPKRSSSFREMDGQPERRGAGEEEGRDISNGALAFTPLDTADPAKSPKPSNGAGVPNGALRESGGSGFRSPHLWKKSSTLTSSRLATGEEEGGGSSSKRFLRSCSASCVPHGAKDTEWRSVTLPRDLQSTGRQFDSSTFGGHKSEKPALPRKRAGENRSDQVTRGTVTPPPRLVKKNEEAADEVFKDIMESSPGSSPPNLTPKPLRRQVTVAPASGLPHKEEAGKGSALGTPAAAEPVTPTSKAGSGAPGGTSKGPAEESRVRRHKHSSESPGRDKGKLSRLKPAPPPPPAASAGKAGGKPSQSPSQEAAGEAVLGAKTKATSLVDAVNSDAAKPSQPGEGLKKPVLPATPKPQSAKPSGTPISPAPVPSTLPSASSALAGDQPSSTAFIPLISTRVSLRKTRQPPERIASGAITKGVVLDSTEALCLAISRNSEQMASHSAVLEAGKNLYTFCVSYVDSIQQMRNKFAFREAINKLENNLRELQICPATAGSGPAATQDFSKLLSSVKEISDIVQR
Chain of EPH-B3 (P54753 34-998): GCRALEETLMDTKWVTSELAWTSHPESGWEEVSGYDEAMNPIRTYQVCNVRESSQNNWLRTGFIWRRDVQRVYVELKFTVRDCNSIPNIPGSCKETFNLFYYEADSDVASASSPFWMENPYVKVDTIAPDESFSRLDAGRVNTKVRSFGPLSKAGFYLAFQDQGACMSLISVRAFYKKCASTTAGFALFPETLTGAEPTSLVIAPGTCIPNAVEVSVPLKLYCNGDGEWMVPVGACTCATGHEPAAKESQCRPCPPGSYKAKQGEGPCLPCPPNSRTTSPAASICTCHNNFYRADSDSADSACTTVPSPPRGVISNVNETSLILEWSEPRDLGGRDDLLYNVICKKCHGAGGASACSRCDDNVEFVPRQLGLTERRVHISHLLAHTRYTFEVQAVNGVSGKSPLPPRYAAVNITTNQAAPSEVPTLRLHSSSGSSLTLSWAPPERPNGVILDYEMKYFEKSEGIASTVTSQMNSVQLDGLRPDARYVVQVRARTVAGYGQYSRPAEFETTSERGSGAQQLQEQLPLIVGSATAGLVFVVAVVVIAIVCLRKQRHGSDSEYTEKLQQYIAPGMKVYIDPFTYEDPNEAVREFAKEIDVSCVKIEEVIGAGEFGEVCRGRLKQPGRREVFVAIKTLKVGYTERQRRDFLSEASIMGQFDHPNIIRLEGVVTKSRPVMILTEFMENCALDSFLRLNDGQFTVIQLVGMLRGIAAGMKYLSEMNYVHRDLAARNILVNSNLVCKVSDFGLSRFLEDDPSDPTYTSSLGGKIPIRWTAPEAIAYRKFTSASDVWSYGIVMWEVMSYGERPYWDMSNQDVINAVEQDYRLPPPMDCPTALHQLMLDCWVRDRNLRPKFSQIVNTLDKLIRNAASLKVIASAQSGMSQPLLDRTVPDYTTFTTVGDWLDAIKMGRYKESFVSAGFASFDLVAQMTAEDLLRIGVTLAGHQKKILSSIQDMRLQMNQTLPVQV
Chain of MARK1 (Q9P0L2 whole entry): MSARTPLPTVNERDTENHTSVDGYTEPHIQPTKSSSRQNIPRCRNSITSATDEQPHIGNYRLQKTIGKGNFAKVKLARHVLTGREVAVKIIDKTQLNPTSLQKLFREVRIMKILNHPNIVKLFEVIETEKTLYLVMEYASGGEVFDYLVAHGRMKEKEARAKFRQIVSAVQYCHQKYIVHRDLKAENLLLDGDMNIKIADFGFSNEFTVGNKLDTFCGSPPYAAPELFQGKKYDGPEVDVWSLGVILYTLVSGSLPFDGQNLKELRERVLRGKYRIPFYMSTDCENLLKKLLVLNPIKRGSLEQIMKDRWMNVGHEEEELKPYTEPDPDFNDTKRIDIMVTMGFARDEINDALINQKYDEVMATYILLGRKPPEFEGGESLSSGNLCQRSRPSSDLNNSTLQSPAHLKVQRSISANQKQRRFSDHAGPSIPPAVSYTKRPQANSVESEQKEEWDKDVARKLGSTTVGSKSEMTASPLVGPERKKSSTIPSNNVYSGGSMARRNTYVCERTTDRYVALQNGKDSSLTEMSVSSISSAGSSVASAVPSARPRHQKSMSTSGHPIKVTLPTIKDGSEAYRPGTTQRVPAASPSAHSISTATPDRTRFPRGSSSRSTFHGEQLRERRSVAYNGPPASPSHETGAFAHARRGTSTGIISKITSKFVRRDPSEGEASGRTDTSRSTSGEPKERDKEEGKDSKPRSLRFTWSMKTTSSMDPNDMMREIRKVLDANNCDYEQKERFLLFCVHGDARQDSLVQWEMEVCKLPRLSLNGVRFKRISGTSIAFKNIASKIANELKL
Chain of PKBb (P31751 whole entry): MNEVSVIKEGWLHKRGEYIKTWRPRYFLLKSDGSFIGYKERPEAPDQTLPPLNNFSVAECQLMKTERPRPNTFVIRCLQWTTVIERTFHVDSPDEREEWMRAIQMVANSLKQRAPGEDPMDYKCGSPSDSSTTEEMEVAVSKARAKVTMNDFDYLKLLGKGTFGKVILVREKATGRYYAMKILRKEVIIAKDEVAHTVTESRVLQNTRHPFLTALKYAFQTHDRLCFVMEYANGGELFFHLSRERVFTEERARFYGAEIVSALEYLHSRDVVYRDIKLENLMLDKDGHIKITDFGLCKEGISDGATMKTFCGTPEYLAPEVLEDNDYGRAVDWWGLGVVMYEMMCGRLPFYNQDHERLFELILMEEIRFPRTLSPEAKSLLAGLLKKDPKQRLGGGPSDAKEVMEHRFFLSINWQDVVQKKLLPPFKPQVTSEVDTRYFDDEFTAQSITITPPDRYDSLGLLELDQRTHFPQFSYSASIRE

Which results are given for `Cc1nc2ccc3sc(NC(=O)c4ccc5ncsc5c4)nc3c2s1` [3A5, N-(2-methyl[1,3]thiazolo[5,4-e][1,3]benzothiazol-7-yl)-1,3-benzothiazole-6-carboxamide]?
ABL activity in kinase profiling (ABL): 102; ASK1 activity in kinase profiling (ASK1): 59; BRK activity in kinase profiling (BRK): 97; BRSK1 activity in kinase profiling (BRSK1): 101; CAMKKb activity in kinase profiling (CAMKKb): 98; CK2 activity in kinase profiling (CK2): 105; EPH-A4 activity in kinase profiling (EPH-A4): 120; EPH-B2 activity in kinase profiling (EPH-B2): 90; EPH-B3 activity in kinase profiling (EPH-B3): 89; ERK2 activity in kinase profiling (ERK2): 109; ERK5 activity in kinase profiling (ERK5): 39; FGF-R1 activity in kinase profiling (FGF-R1): 149; GSK3b activity in kinase profiling (GSK3b): 102; IKKb activity in kinase profiling (IKKb): 85; LKB1 activity in kinase profiling (LKB1): 79; MAPKAP-K3 activity in kinase profiling (MAPKAP-K3): 81; MARK1 activity in kinase profiling (MARK1): 103; MARK3 activity in kinase profiling (MARK3): 91; MELK activity in kinase profiling (MELK): 69; MKK1 activity in kinase profiling (MKK1): 72; MKK6 activity in kinase profiling (MKK6): 119; MNK1 activity in kinase profiling (MNK1): 109; MNK2 activity in kinase profiling (MNK2): 86; MST3 activity in kinase profiling (MST3): 100; PAK6 activity in kinase profiling (PAK6): 96; PKA activity in kinase profiling (PKA): 98; activity at 1 µM (PKBb): 125%; PKCz activity in kinase profiling (PKCz): 115; PLK1 activity in kinase profiling (PLK1): 110; PRAK activity in kinase profiling (PRAK): 89; RSK1 activity in kinase profiling (RSK1): 83; SIK3 activity in kinase profiling (SIK3): 84; STK33 activity in kinase profiling (STK33): 88; SYK activity in kinase profiling (SYK): 99; SmMLCK activity in kinase profiling (SmMLCK): 50; Src activity in kinase profiling (Src): 89; TLK1 activity in kinase profiling (TLK1): 99; TTBK2 activity in kinase profiling (TTBK2): 108; TrkA activity in kinase profiling (TrkA): 93; ULK2 activity in kinase profiling (ULK2): 92; VEG-FR activity in kinase profiling (VEG-FR): 108; YES1 activity in kinase profiling (YES1): 112; p38g MAPK activity in kinase profiling (p38g MAPK): 107

With `CSc1nc2ccc3nc(NC(=O)c4ccco4)sc3c2s1` [5E4, N-[7-(methylsulfanyl)[1,3]thiazolo[4,5-g][1,3]benzothiazol-2-yl]-2-furamide] as the molecule, how does the “ABL activity in kinase profiling” value (ABL) read?
Its value is 61.

And the “ASK1 activity in kinase profiling” value (ASK1)?
The value was 84.

What about the “BRK activity in kinase profiling” value (BRK) of the same molecule?
Its value is 98.

And the “BRSK1 activity in kinase profiling” value (BRSK1)?
The value was 86.

What about the “CAMKKb activity in kinase profiling” value (CAMKKb) of the same molecule?
The value was 91.

What about the “CK2 activity in kinase profiling” value (CK2) of the same molecule?
Its value is 77.

And the “EPH-A4 activity in kinase profiling” value (EPH-A4)?
Its value is 112.

And the “EPH-B2 activity in kinase profiling” value (EPH-B2)?
The value was 94.

What about the “EPH-B3 activity in kinase profiling” value (EPH-B3) of the same molecule?
Its value is 110.

And the “ERK2 activity in kinase profiling” value (ERK2)?
Its value is 112.

And the “ERK5 activity in kinase profiling” value (ERK5)?
Its value is 39.

What about the “FGF-R1 activity in kinase profiling” value (FGF-R1) of the same molecule?
The value was 109.

And the “GSK3b activity in kinase profiling” value (GSK3b)?
Its value is 84.

What about the “IKKb activity in kinase profiling” value (IKKb) of the same molecule?
The value was 90.

What about the “LKB1 activity in kinase profiling” value (LKB1) of the same molecule?
The value was 79.

And the “MAPKAP-K3 activity in kinase profiling” value (MAPKAP-K3)?
Its value is 86.

What about the “MARK1 activity in kinase profiling” value (MARK1) of the same molecule?
The value was 107.

What about the “MARK3 activity in kinase profiling” value (MARK3) of the same molecule?
Its value is 83.

What about the “MELK activity in kinase profiling” value (MELK) of the same molecule?
The value was 71.

What about the “MKK1 activity in kinase profiling” value (MKK1) of the same molecule?
The value was 85.

What about the “MKK6 activity in kinase profiling” value (MKK6) of the same molecule?
The value was 101.

What about the “MNK1 activity in kinase profiling” value (MNK1) of the same molecule?
The value was 99.

And the “MNK2 activity in kinase profiling” value (MNK2)?
The value was 88.

What about the “MST3 activity in kinase profiling” value (MST3) of the same molecule?
Its value is 99.

And the “PAK6 activity in kinase profiling” value (PAK6)?
Its value is 104.

And the “PKA activity in kinase profiling” value (PKA)?
The value was 97.

And the activity at 1 µM (PKBb)?
The activity at 1 µM was 121%.

And the “PKCz activity in kinase profiling” value (PKCz)?
The value was 103.

What about the “PLK1 activity in kinase profiling” value (PLK1) of the same molecule?
Its value is 102.

What about the “PRAK activity in kinase profiling” value (PRAK) of the same molecule?
Its value is 85.

What about the “RSK1 activity in kinase profiling” value (RSK1) of the same molecule?
Its value is 92.

And the “SIK3 activity in kinase profiling” value (SIK3)?
Its value is 79.

What about the “STK33 activity in kinase profiling” value (STK33) of the same molecule?
The value was 110.

And the “SYK activity in kinase profiling” value (SYK)?
Its value is 102.

And the “SmMLCK activity in kinase profiling” value (SmMLCK)?
Its value is 43.

And the “Src activity in kinase profiling” value (Src)?
The value was 79.

And the “TLK1 activity in kinase profiling” value (TLK1)?
The value was 92.

What about the “TTBK2 activity in kinase profiling” value (TTBK2) of the same molecule?
The value was 103.

What about the “TrkA activity in kinase profiling” value (TrkA) of the same molecule?
The value was 90.

And the “ULK2 activity in kinase profiling” value (ULK2)?
The value was 81.

And the “VEG-FR activity in kinase profiling” value (VEG-FR)?
Its value is 53.

And the “YES1 activity in kinase profiling” value (YES1)?
The value was 110.

And the “p38g MAPK activity in kinase profiling” value (p38g MAPK)?
The value was 105.
